In series [1] the test system is anterior chamber aqueous humor pressure load rat model. Kind of series: Retinal thickness (IPL, INL, ONL) in retinal damage model induced by anterior chamber aqueous humor pressure load. It is filed as in vivo, Rat; Slc: SD. To be noted: for Inner plexiform layer (IPL) thickness compared with the control group, in words: 300 to 900 μm from the optic disk. On the procedure: • Name: Compound 9 • Source: Synthesized in the above Examples • Used amount: 0.4 mL (50 mg/mL solution) • Storage conditions: Freezing, light shielding
Method for preparing test substance (1 mg/mL): A high concentration solution prepared at 50 mg/mL was diluted 50 times with a medium to prepare a 1 mg/mL administration solution.
• Name: MK-801 • Distributor: SIGMA-ALDRICH • Use amount: 0.0501 g • Storage condition: refrigerated (2° C. to 8° C.)
Method for preparing positive control substance (10 mg/mL): 0.0501 g was weighed out and made up to a total volume of 5 mL with a control substance (physiological saline).
• Species and strains: Rat; Slc: SD • Number of animals on arrival and sex: 50 males • Age in weeks at arrival: 6 weeks old • Body weight range at arrival: 147.2 to 170.0 g • Source: Japan SLC, Inc.
Grouping was performed two days before the first creation of the retinal damage model induced by an anterior chamber aqueous humor pressure load. Using the daily body weight as an index, stratified random allocation was performed using SAS (Ver. 9.3, SAS Institute Japan Ltd.) and EXSUS (Ver. 8.0, CAC Croit Corporation) so that an average value of the body weights of each group was approximately uniform.
• Administration route: Eyedrop administration, intravenous administration • Administration method (eyedrop): Eyedrop administration was performed on a treated eye (right eye) of a rat using a micropipette 4 times a day (at intervals of 1.5 hours or more). • Administration method (intravenous): The amount of administration solution, calculated from the body weight on the day of administration, was administered from the tail vein using a syringe and an injection needle about 30 minutes before ischemic load. • Time of administration: Administration was performed according to the following schedule.
1. 10 mg/kg xylazine hydrochloride was intramuscularly administered on the model creation day (day 0). A rat was placed in an anesthesia box and subjected to general anesthesia with isoflurane (5%, oxygen:nitrous oxide=1:3). When anesthesia was effective, the rat was taken out of the anesthesia box, an inhalation anesthetic mask was worn, and anesthesia was maintained with isoflurane (1% to 5%, oxygen nitrous oxide=1:3).
2. The body temperature was maintained at 37° C. with a warming mat, and a mydrin P ophthalmic solution was instilled in the right eye (treated eye) of the rat to dilate the pupil, then the cravit ophthalmic solution 1.5% (Santen Pharmaceutical Co., Ltd.) was instilled.
3. A bottle of an IV bag containing physiological saline was previously suspended so that a water surface was 155 cm (100 mmHg or more) higher than the eye of the rat. The IV bag was connected to a pediatric infusion set (Terumo Corporation), a 27 G injection needle thereof was inserted into and fixed to the anterior chamber while slightly dripping the liquid from a needle tip. The model was created in the light phase (6:00 to 18:00) in consideration of the diurnal variation of the intraocular pressure.
4. After the needle was inserted into the anterior chamber, pressure (100 mmHg or more) was loaded and maintained in the anterior chamber by associating the reflux system.
5. After an ischemic load for 45 minutes, the injection needle and the like were removed, the inhalation anesthetic mask was removed, and the rat was sufficiently woken up under a warming mat, and then returned to the cage.
6. For 2 days after surgery, 10 mg/kg xylazine hydrochloride was intramuscularly administered as an analgesic for the purpose of alleviating the pain after the treatment.
1. Fourteen days after model creation, general anesthesia was performed with isoflurane (5%, oxygen:nitrous oxide=1:3), euthanasia was then performed by exsanguination, a suture was placed as a marker at the 12 o'clock position of the ocular conjunctiva, and eyeball enucleation was performed.
2. […]

Series [2] in a line: Body weight measurement during the CNV rat test. It is filed as in vivo. The conditions noted are these: for Body Weight (Average): 14 days 4 times a day. On the procedure:
The appearance, behavior, and state of excrement or the like were observed every day.
The body weight was measured on the animal arrival date, the preliminary housing end date (grouping date), the eyedrop administration start date, the laser irradiation date (Day 0), and the eyeball enucleation date (Day 14).

Where [3] appears, read: compound 9, 1 mg/mL eye drop, right eye, individual animals 301-310.
[4] abbreviates: test groups 2 and 3 (test substance groups).

Several values for one entry are separate records, joined by “and”; a condition that tells them apart may be missing. Equal entries are not always repeated. Entries after “also recorded” stand apart in the source; their conditions may differ.

`CC[C@@]1(C)Oc2cc(ccc2O)C[C@H](NC)C(=O)N[C@@H](C(C)C)C(=O)N[C@@H]1C(=O)N[C@@H](CC(=O)O)C(=O)O` [Compound 9]: in series [1] (setting [3]), the “Thickness of ONL, distance from optic disk 300 μm (single measurement)” value was 29.809 μm and 32.509 μm and 28.214 μm and 43.038 μm and 41.873 μm and 42.494 μm and 36.113 μm and 33.931 μm and 32.522 μm and 36.780 μm and 37.800 μm and 37.520 μm and 42.742 μm and 39.019 μm and 43.913 μm and 40.612 μm and 41.912 μm and 42.252 μm and 45.276 μm and 46.187 μm (2×) and 47.148 μm and 61.386 μm and 56.945 μm and 55.989 μm and 51.520 μm and 53.774 μm and 52.512 μm and 40.451 μm and 43.373 μm. The “Thickness of ONL, distance from optic disk 600 μm (single measurement)” value in series [1] (setting [3]) was 30.220 μm and 32.139 μm and 47.765 μm and 48.521 μm (2×) and 35.360 μm and 35.504 μm and 40.331 μm and 37.009 μm and 49.431 μm and 49.964 μm and 42.863 μm and 40.883 μm and 44.362 μm and 46.081 μm and 44.179 μm and 42.769 μm and 44.033 μm and 41.550 μm and 42.129 μm and 31.379 μm and 50.234 μm and 36.932 μm and 39.277 μm and 47.914 μm and 40.524 μm and 43.548 μm and 48.975 μm and 41.515 μm and 45.970 μm. Besides, the “Thickness of ONL, distance from optic disk 900 μm (single measurement)” value in series [1] (setting [3]) is 26.908 μm and 28.742 μm and 28.226 μm and 52.295 μm and 46.680 μm and 52.512 μm and 29.438 μm and 34.522 μm and 34.086 μm and 36.727 μm and 35.966 μm and 41.192 μm and 41.663 μm and 39.411 μm and 42.337 μm and 37.593 μm and 40.812 μm and 38.516 μm and 42.098 μm and 44.443 μm and 46.165 μm and 42.932 μm and 37.619 μm and 42.252 μm and 39.713 μm and 39.071 μm and 42.321 μm and 37.664 μm and 38.550 μm and 42.169 μm. Also, the “Inner plexiform layer (IPL) thickness compared with the control group, in words” value in series [1] (test group 2 (preventive: eye drop on the 2 days before model creation)) is “statistically significant differences were observed at all measurement sites; also recorded: statistically significant effect of suppressing retinal damage by aqueous humor pressure load was observed at all measurement sites”; in series [1] (test group 3 (therapeutic: eye drop for 13 days from the day after model creation)), “statistically significant differences were observed at all measurement sites; also recorded: statistically significant effect of suppressing retinal damage by aqueous humor pressure load was observed at all measurement sites; also recorded: almost equivalent to that of the MK-801”. Moreover, the “Inner nuclear layer (INL) thickness compared with the control group, in words” value in series [1] (setting [4]) is listed as “no obvious change was observed”. The “Outer nuclear layer (ONL) thickness compared with the control group, in words” value in series [1] (setting [4]) is recorded as “no obvious change was observed”. In addition, the “Body Weight (Average)” value in series [2] (Group 3, eye drop 5 μg/5 μL/eye, Day 0 (Laser injection)) worked out at 152.66 g; in series [2] (Group 3, eye drop 5 μg/5 μL/eye, Day 14 (Enucleation)), 184.36 g; in series [2] (Group 3, eye drop 5 μg/5 μL/eye, Day −3 or Day −2 (Grouping)) it was 141.80 g; in series [2] (Group 4, eye drop 50 μg/5 μL/eye, Day 0 (Laser injection)), 152.84 g; in series [2] (Group 4, eye drop 50 μg/5 μL/eye, Day 14 (Enucleation)), 186.10 g; in series [2] (Group 4, eye drop 50 μg/5 μL/eye, Day −3 or Day −2 (Grouping)) it was 141.65 g. In addition, the “Weight (g) (Individual)” value in series [2] (Group 3 individual animals, eye drop 5 μg/5 μL/eye, Enucleation (Day 14)) is 187.51 g and 200.36 g and 188.53 g and 178.12 g and 191.73 g and 185.42 g and 178.06 g and 179.74 g and 187.00 g and 167.09 g; in series [2] (Group 3 individual animals, eye drop 5 μg/5 μL/eye, Grouping (Day −3 or −2)), 142.67 g and 150.51 g and 144.41 g and 133.08 g and 140.65 g and 139.40 g and 138.22 g and 145.52 g and 148.31 g and 135.25 g; in series [2] (Group 3 individual animals, eye drop 5 μg/5 μL/eye, Laser injection (Day 0)), 156.06 g and 160.40 g and 156.65 g and 141.07 g and 149.62 g and 153.89 g and 146.49 g and 158.03 g and 159.18 g and 145.16 g; in series [2] (Group 4 individual animals, eye drop 50 μg/5 μL/eye, Enucleation (Day 14)) it was 171.86 g and 175.04 g and 182.32 g and 197.31 g and 192.55 g and 179.90 g and 198.77 g and 183.99 g and 193.77 g and 185.47 g; in series [2] (Group 4 individual animals, eye drop 50 μg/5 μL/eye, Grouping (Day −3 or −2)) it was 133.40 g and 133.47 g and 138.61 g and 149.89 g and 142.02 g and 140.70 g and 144.50 g and 145.24 g and 149.29 g and 139.35 g; in series [2] (Group 4 individual animals, eye drop 50 μg/5 μL/eye, Laser injection (Day 0)), 140.92 g and 141.64 g and 146.31 g and 156.67 g and 152.34 g and 152.92 g and 159.45 g and 160.10 g and 163.58 g and 154.47 g.
